Experimental findings from patent publication US11807780B2, “Aqueous coatings containing biosurfactants as bio-adjuvants and methods for using same” (RHODIA OPERATIONS, priority 2018, dated 2023) are described below.

For the test, the system named is Pseudomonas aeruginosa ATCC 9027. The test can be described thus: MIC determination by two fold dilutions in 96 well microtiter plates, biocide with and without bio-surfactant. It is filed as cell-based. The note with it: for MIC: Pseudomonas aeruginosa; for microbial growth (absorbance at 660 nm): Table 3 / FIG. 5, triplicate wells. The method, then:
In microbiology, minimum inhibitory concentration (MIC) is defined as the lowest concentration of an antimicrobial that will inhibit the growth of an microorganism after overnight or long incubation. Minimum inhibitory concentrations are important in diagnostic laboratories to confirm resistance of microorganisms to an antimicrobial agent and also to monitor the activity of new antimicrobial agents. A lower MIC is an indication of a better antimicrobial agent, as less is generally needed for acceptable performance. An MIC determination is generally regarded as a basic or standard laboratory measurement of the activity of an antimicrobial agent against an organism.
Biocides tested: • Methylchloroisothiazolinone/Methylisothiazolinone (CMIT/MIT) [also known as KATHON]: • Benzisothiazolinone [BIT] • Methylisothiazolinone [MIT]
Microorganism Used: Pseudomonas aeruginosa ATCC 9027
Biosurfactants tested: • 1. R95D90 (SigmaAldrich) 95% pure rhamnolipid with 90% Di-rhamnolipid dominant • 2. R95M90 (SigmaAldrich) 95% pure rhamnolipid with 90% Mono-rhamnolipid dominant • 3. Natural Saponin
MIC test is a method for determining the Minimum Inhibitory Concentration of a compound required to inhibit or kill the test organisms. MIC50 test is a method for determining the Minimum Inhibitory Concentration of a compound required to inhibit or kill the 50% of the test organisms.
1. The method was based on the MIC (Minimum Inhibitory Concentration) determination by standard two fold dilutions prepared in an appropriate medium and tested in 96 well microtiter plates.
2. A 4× concentration of the active from bio-surfactant stock solution [400 ppm] was prepared to dispense into […].
3. The plates were divided into four sections. Unless otherwise stated, Columns 1-3 received a combination of the bio-surfactant and biocide, Columns 4-6 received biocide alone, and Columns 7-9 received the bio-surfactant alone. Column 10 was left empty, Column 11 was blank medium and Column 12 was medium plus the suspension of the organism.
5. One microtiter plate per test organism and per biocide was used. The dilution scheme is attached as a separate PDF file “Dilution Scheme”.
6. 100 μL of sterile water was aliquoted into to columns 4-6, 11 and 12 with the aid of a 12-channel pipettor add 50 μL in Columns 1-3 and 7-9.
7. Dispensed 50 μL of the 8× stock solution of an appropriate biocide (MIT, BIT or Kathon) in Row A Columns 1-3
8. After mixing with the aid of the multichannel pipettor, 50 μL from the row A wells were transferred to 2nd row [B] wells and after mixing, 50 μL transferred to row C and, the operations were repeated down to row […] and 50 μL from H row (the last row) were discarded.
9. Make 4× stock solution [400 ppm] of each of the bio-surfactants. Dispensed 50 μL of bio-surfactant in 4 different 96 well plates in Columns 7-9 in each of the respective plates.
10. In wells 4-6, 100 μL of individual biocides at 4× concentration were added to the top row A, then serially diluted down to row H while discarding the final 100 μL from row H.
11. Columns 1-3 and 7-9 received 50 μL of 4× bio-surfactant.
12. In a separate tube, prepared bacterial inoculums from 24 hr grown cultures by suspending the cells in 2× Tryptic Soy Broth medium for bacteria.
13. The bacterial inocula were adjusted to 5-6 logs cfu/ml by measuring the turbidity.
14. With an aid of the multichannel pipettor, aliquots of 100 μL organisms were dispensed into each well except for Column 11 in which blank medium was added.
15. Incubated the plates at 35 Celsius degrees for 24 hours for bacterial growth
16. Made visual recordings of positive or negative growth in wells. Measured the absorbance at 660 nm and assessed viability via addition of resazurin dye. Note: for bacterial growth, 10 μL of dye Resazurin stock [250 mg/50 mL] was added to determine the positive and negative growths as determined by color change from blue to pink. […]

Values joined by “and” are separate entries in the source; they are usually repeats but may differ in a detail not shown here. Equal values may be shown once. Read-outs that look alike come from different tables or passages of the source. Bounds are passed on as bounds.

`O=c1[nH]sc2ccccc12` [BIT, 1,2-benzisothiazolin-3-one]: the MIC is, setting by setting: (ATCC9027, biocide alone, Di-Rhamnolipid 95% series, read-out: MIC w/o BS) 25 µg/mL; (ATCC9027, biocide alone, Mono + Di Rhamnolipid 95% series, read-out: MIC w/o BS) 25 µg/mL; (ATCC9027, biocide alone, Mono-Rhamnolipid 95% series, read-out: MIC w/o BS) 25 µg/mL; (ATCC9027, biocide alone, Natural Saponin series, read-out: MIC w/o BS) 25 µg/mL; (ATCC9027, with Di-Rhamnolipid 95% (50 ppm), read-out: MIC with BS) 12.5 µg/mL; (ATCC9027, with Mono + Di Rhamnolipid 95% (50 ppm), read-out: MIC with BS) 12.5 µg/mL. Further, the MIC runs as follows: (ATCC9027, with Mono-Rhamnolipid 95% (50 ppm), read-out: MIC with BS) 12.5 µg/mL; (ATCC9027, with Natural Saponin (Purchased), 50 ppm active, read-out: MIC with BS) over 200 µg/mL. Moreover, the “microbial growth (absorbance at 660 nm)” value by setting is: (PPM 1.56) 0.046 and 0.048 and 0.047; (PPM 3.13) 0.046 and 0.047 and 0.048; (PPM 6.25) 0.047 and 0.048; (PPM 50) 1.278 and 1.284 and 1.285; (PPM 100) 1.339 and 1.313 and 1.302; (PPM 200) 1.371 and 1.379.

In the case of `Cn1sccc1=O` [MIT, 2-methyl-4-isothiazolin-3-one], the MIC reads like this: (ATCC9027, read-out: MIC w/o BS, biocide alone, Di-Rhamnolipid 95% series) 12.5 µg/mL; (ATCC9027, read-out: MIC w/o BS, biocide alone, Mono + Di Rhamnolipid 95% series) 12.5 µg/mL; (ATCC9027, read-out: MIC w/o BS, biocide alone, Mono-Rhamnolipid 95% series) 12.5 µg/mL; (ATCC9027, read-out: MIC w/o BS, biocide alone, Natural Saponin series) 12.5 µg/mL; (ATCC9027, read-out: MIC with BS, with Di-Rhamnolipid 95% (50 ppm)) 12.5 µg/mL; (ATCC9027, read-out: MIC with BS, with Mono + Di Rhamnolipid 95% (50 ppm)) 6.5 µg/mL. In addition, the MIC (ATCC9027, read-out: MIC with BS, with Mono-Rhamnolipid 95% (50 ppm)) is 6.5 µg/mL and the MIC (ATCC9027, read-out: MIC with BS, with Natural Saponin (Purchased), 50 ppm active) is over 100 µg/mL.
